From PMC10857328, “Utilization of Biopolymer-Based Lutein Emulsion as an Effective Delivery System to Improve Lutein Bioavailability in Neonatal Rats” (Nutrients, 2024)
Where two headings read alike, the source gives them in different places. Marks after values point to notes of the source that are not given here.

Key:
[1] = Daily dosing study 1 (maternal purified diet with no lutein): serum and tissue lutein concentrations; type: in vivo, neonatal Sprague-Dawley rats; settings: for Lutein concentration, serum: 2 mg/kg daily oral P5-P18, sampled P19
Protocol: Serum and tissue lutein concentration was determined using an ultra-performance liquid chromatography (UPLC) system (Waters, Milford, MA, USA) equipped with a photo-diode array detector (PDA)/MS/MS, according to our well-established methods with slight modification. As for the serum, 100 μL of the sample was incubated with 2 mL of 100% ethanol at room temperature for an hour for lipid extraction. For the tissues, ~0.1 g of the sample was weighed, homogenized, and incubated with 2 mL of 100% ethanol at room temperature for an hour. An amount of 1 mL of 5% (w/v) potassium hydroxide was added to the sample and incubated in a water bath at 60 °C for 45 min for saponification. Upon saponification, samples were allowed to cool for about 15 min, and then an addition of 4 mL of hexane containing 0.1% butylated hydroxytoluene (w/v) and 2 mL of deionized water was added. The mixture was vortexed for 20 s and centrifuged at 1600 rpm at 25 °C for 15 min. The upper layer was collected following centrifugation and dried under nitrogen at 37 °C. The dried sample was then rinsed twice with hexane, dried, and reconstituted with 100 µL of acetonitrile-methanol. The reconstituted sample was centrifuged for 2 min to remove any possible precipitation. For UPLC analysis, 10 µL of the sample was injected into the Waters Acquity UPLC HSS T3 column. Solvent A was acetonitrile: methanol (50:50, v/v), and solvent B was 100% isopropanol. The mobile phase was made up of solvent A and solvent B in a volume ratio of 95:5 (v/v). The flow rate was set as 0.5 mL/min, and the column temperature was maintained at 35 °C. The detection wavelength was set at 446 nm. Retinyl acetate (Sigma-Aldrich, St. Louis, MO, USA) was used as the internal standard. To determine the effects of daily consumption of CTA-stabilized lutein emulsion on tissue lutein status, two daily dosing studies were conducted. The procedures were approved by the Institutional Animal Care and Use Committee of the University of Alabama (Number: 21-02-4373, 4 February 2021). For daily dosing study 1 (Figure 1B), on P5, rat pups (n = 8–9/group) were randomly selected from the litters and received an oral dose of either free lutein (i.e., lutein ester dissolved in olive oil) or lutein emulsion both containing 2 mg/kg body weight of lutein. […] Dosing was repeated daily until P18. The dosage was determined from previous research in both rodent and human newborns and was also established as an Acceptable Daily Intake for lutein by the Joint Food and Agricultural Organization/World Health Organization. On P19, pups were euthanized. Rats are known to wean between P19 and P21 [47]. Blood from vena cava, liver, spleen, brain, eye, kidney, lung, white adipose tissue (WAT), and brown adipose tissue (BAT) were collected. Blood samples were centrifuged to obtain serum. Serum and collected tissues were frozen at −80 °C until analysis. Serum and tissue lutein concentrations were analyzed using the methods described in Section 2.3.2.

[2] = encapsulation technique Nanoparticles, Sprague-Dawley rats, cited from earlier work
[3] = 2 mg/kg daily oral P5-P18, maternal purified diet with no lutein
[4] = 2 mg/kg daily oral P5-P18, maternal purified diet with no lutein, listed as free lutein
[5] = daily dosing study 1 vs study 2

Lutein concentration, serum ([1]; maternal purified diet with no lutein): 112.42 ± 34.60 ^a nmol/L | Lutein concentration, serum ([1]; maternal purified diet with no lutein, listed as free lutein): 112.42 ± 34.60 nmol/L | Lutein concentration, BAT [1, 3]: 0.02 ± 0.002 ^a nmol/g | Lutein concentration, WAT [1, 3]: 0.08 ± 0.04 ^a nmol/g | Lutein concentration, brain [1, 3]: 0.04 ± 0.01 ^b nmol/g | Lutein concentration, eye [1, 3]: 0.04 ± 0.01 ^a nmol/g | Lutein concentration, kidney [1, 3]: 0.12± 0.04 ^b nmol/g | Lutein concentration, liver [1, 3]: 2.52 ± 1.29 ^b nmol/g | Lutein concentration, lung [1, 3]: 0.06 ± 0.01 ^a nmol/g | Lutein concentration, spleen [1, 3]: 0.66 ± 0.18 ^a nmol/g | Lutein concentration, BAT [1, 4]: 0.02 ± 0.002 nmol/g | Lutein concentration, brain [1, 4]: 0.04 ± 0.01 nmol/g | Lutein concentration, eye [1, 4]: 0.02 ± 0.007 nmol/g | Lutein concentration, kidney [1, 4]: 0.12 ± 0.04 nmol/g | Lutein concentration, liver [1, 4]: 2.52 ± 1.29 nmol/g | Lutein concentration, lung [1, 4]: 0.06 ± 0.01 nmol/g | Lutein concentration, spleen [1, 4]: 0.66 ± 0.18 nmol/g | Fold higher eye lutein concentration, no-lutein maternal diet vs diet containing lutein [1, 5]: 2.00 fold | Fold higher liver lutein concentration, no-lutein maternal diet vs diet containing lutein [1, 5]: 2.04 fold | Fold higher serum lutein concentration, no-lutein maternal diet vs diet containing lutein [1, 5]: 6.38 fold
Substance: Lutein ester [Free Lutein]
Tmax (serum) ([2]; ref Chang et al. (2018) [59]): 3 h | Tmax (serum) ([2]; ref Liu et al. (2017) [37]): 2 h | Tmax (serum) ([2]; ref Wu et al. (2019) [54]): 2 h | Tmax (serum) ([2]; ref Zhang et al. (2015) [58]): 6 ± 2.2 h
